Counter-ions that a name gives are not always drawn. Like-named read-outs stand apart in the source and are kept apart here.

This assay has as its system Acinetobacter baumannii ATCC17961. The assay can be described thus: Antimicrobial susceptibility testing: 90% growth inhibitory concentration (IC90) determination in Iso-Sensitest broth, OD600 growth. The assay is classed as cell-based. The procedure, abridged:
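Compounds were twofold serially diluted in DMSO across 10 points (e.g. 50 to 0.097 μM final) and inoculated at ~5×10^(5) CFU/ml. Plates incubated at 35±2° C, with OD600 read every 20 minutes over 16 h. IC90 was derived from growth inhibition during logarithmic growth.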

The mark [1] stands for this setting: Acinetobacter baumannii, ATCC17961, 16 h, read-out: A. baumannii ATCC 17961 IC90 (uM), strain ATCC 17961, OD600 growth over 16 h.
Where [2] appears, read: Acinetobacter baumannii, ATCC17961, 16 h, strain ATCC 17961, OD600 growth over 16 h, read-out: A. baumannii ATCC 17961 IC90.

The IC90 is the concentration needed for an effect of 90%. Regarding `Cc1cc(Nc2nccn3c(-c4c[nH]nc4C(F)(F)F)cnc23)ccc1C(=O)N1CCN(C(=O)[C@@H]2C[C@@H](O)CN2)CC1` [Example 459, formic acid; [4-[(2S,4R)-4-hydroxypyrrolidine-2-carbonyl)piperazin-1-yl]-[2-methyl-4-[[3-[3-(trifluoromethyl)-1H-pyrazol-4-yl]imidazo[1,2-a]pyrazin-8-yl]amino]phenyl]methanone], the IC90 (read-out: A. baumannii ATCC 17961 IC90, strain ATCC 17961, OD600 growth over 16 h) stood at 0.762 µM.

`CCc1cc(Nc2nccn3c(-c4cn(CC(N)=O)nc4C(F)(F)F)cnc23)ccc1C(=O)NCCOCCN` [Example 316, N-[2-(2-aminoethoxy)ethyl]-4-[[3-[1-(2-amino-2-oxoethyl)-3-(trifluoromethyl)pyrazol-4-yl]imidazo[1,2-a]pyrazin-8-yl]amino]-2-ethylbenzamide formate]: the IC90 under setting [1] was found to be 1.52 µM.

`Cc1cc(Nc2nccn3c(-c4c[nH]nc4C(F)(F)F)cnc23)ccc1C(=O)N1CCN(C(=O)[C@@H]2CNCC[C@H]2O)CC1` (racemic) [Example 467, [2-methyl-4-[[3-[3-(trifluoromethyl)-1H-pyrazol-4-yl]imidazo[1,2-a]pyrazin-8-yl]amino]phenyl]-[4-[rac-(3R,4R)-4-hydroxypiperidine-3-carbonyl]piperazin-1-yl]methanone hydrochloride]: under setting [2], the IC90 amounted to 1.42 µM.

As for `Cc1cc(Nc2nccn3c(-c4cn(C)nc4C(F)(F)F)cnc23)ccc1C(=O)NCCCNC(=O)[C@@H]1C[C@@H](O)CN1` [Example 455, formic acid; (2S,4R)-4-hydroxy-N-[3-[[2-methyl-4-[[3-[1-methyl-3-(trifluoromethyl)pyrazol-4-yl]imidazo[1,2-a]pyrazin-8-yl]amino]benzoyl]amino]propyl]pyrrolidine-2-carboxamide], the IC90 under setting [1] came to 1.21 µM.

With `Cc1cc(Nc2nccn3c(-c4cn(C)nc4C(F)(F)F)cnc23)ccc1C(=O)N1CCN(C(=O)[C@@H]2CCNC[C@@H]2O)CC1` [Example 474, formic acid; [4-[(3R,4R)-3-hydroxypiperidine-4-carbonyl]piperazin-1-yl]-[2-methyl-4-[[3-[1-methyl-3-(trifluoromethyl)pyrazol-4-yl]imidazo[1,2-a]pyrazin-8-yl]amino]phenyl]methanone], the IC90 under setting [1] came out at 1.34 µM.

Turning to `Cc1cc(Nc2nccn3c(-c4cn(C)nc4C(F)(F)F)cnc23)ccc1C(=O)N1CCN(C(=O)[C@@H]2C[C@@H](O)CN2)CC1` [Example 473, formic acid; [4-[(2S,4R)-4-hydroxypyrrolidine-2-carbonyl]piperazin-1-yl]-[2-methyl-4-[[3-[1-methyl-3-(trifluoromethyl)pyrazol-4-yl]imidazo[1,2-a]pyrazin-8-yl]amino]phenyl]methanone], the IC90 under setting [1] stood at 1.29 µM.

Regarding `O=C(c1ccc(Nc2nccn3c(-c4c[nH]nc4C(F)(F)F)cnc23)cc1Cl)N1CCN(C(=O)[C@@H]2C[C@@H](O)CN2)CC1` [Example 448, [2-chloro-4-[[3-[3-(trifluoromethyl)-1H-pyrazol-4-yl]imidazo[1,2-a]pyrazin-8-yl]amino]phenyl]-[4-[(2S,4R)-4-hydroxypyrrolidine-2-carbonyl]piperazin-1-yl]methanone formate], the IC90 under setting [1] stood at 0.235 µM.

As to `COc1ccc(Cn2cc(-c3cnc4c(Nc5ccc(C(=O)N6CCNCC6)c(Cl)c5)nccn34)c(C(F)(F)F)n2)nn1` [Example 159, [2-chloro-4-[[3-[1-[(6-methoxypyridazin-3-yl)methyl]-3-(trifluoromethyl)pyrazol-4-yl]imidazo[1,2-a]pyrazin-8-yl]amino]phenyl]-piperazin-1-ylmethanone formate], the IC90 under setting [1] was found to be 0.408 µM.

On to `CCc1cc(Nc2nccn3c(-c4cn(CC(F)F)nc4C(F)(F)F)cnc23)ccc1C(=O)NCC(=O)N[C@@H]1CCNC1` [Example 648, 4-[[3-[1-(2,2-difluoroethyl)-3-(trifluoromethyl)pyrazol-4-yl]imidazo[1,2-a]pyrazin-8-yl]amino]-2-ethyl-N-[2-oxo-2-[[(3R)-pyrrolidin-3-yl]amino]ethyl] benzamide formate], for which the IC90 under setting [2] was 0.246 µM.

For the molecule `NC1CC(C(=O)N2CCN(C(=O)c3ccc(Nc4nccn5c(-c6c[nH]nc6C(F)(F)F)cnc45)cc3Cl)CC2)C1` (centres unmarked) [Example 327, [4-(3-aminocyclobutanecarbonyl)piperazin-1-yl]-[2-chloro-4-[[3-[3-(trifluoromethyl)-1H-pyrazol-4-yl]imidazo[1,2-a]pyrazin-8-yl]amino]phenyl]methanone formate], the IC90 under setting [1] is 0.146 µM.

Regarding `O=C(CNCCNC(=O)c1ccc(Nc2nccn3c(-c4cn(CC(F)F)nc4C(F)(F)F)cnc23)cc1Cl)N[C@@H]1CCNC1` [Example 823, (R)-2-chloro-4-(3-(1-(2,2-difluoroethyl)-3-(trifluoromethyl)-1H-pyrazol-4-yl)imidazo[1,2-a]pyrazin-8-yl)amino)-N-(2-((2-oxo-2-(pyrrolidin-3-ylamino)ethyl)amino)ethyl) benzamide formate], the IC90 under setting [2] turned out to be 0.18 µM.

For `CCc1cc(Nc2nccn3c(-c4cn(CC(F)F)nc4C(F)(F)F)cnc23)ccc1C(=O)N[C@H](C)CNC(=O)[C@@H]1CCCN1` [Example 649, (S)-N-((R)-2-(4-((3-(1-(2,2-difluoroethyl)-3-(trifluoromethyl)-1H-pyrazol-4-yl)imidazo[1,2-a]pyrazin-8-yl)amino)-2-ethylbenzamido)propyl)pyrrolidine-2-carboxamide], under setting [2], the IC90 is 0.247 µM.

`CCc1cc(Nc2nccn3c(-c4c[nH]nc4C(F)(F)F)cnc23)ccc1C(=O)NCCCNC(=O)[C@@H]1CC[C@H](N)C1` [Example 534, N-(3-((1R,3S)-3-aminocyclopentane-1-carboxamido)propyl)-2-ethyl-4-((3-(3-(trifluoromethyl)-1H-pyrazol-4-yl)imidazo[1,2-a]pyrazin-8-yl)amino)benzamide formate]: under setting [1], the IC90 turned out to be 0.251 µM.

Take `CCNC(=O)c1ccc(Nc2nccn3c(-c4c[nH]nc4C(F)(F)F)cnc23)cc1CC` [Example 280, N,2-diethyl-4-[[3-[3-(trifluoromethyl)-1H-pyrazol-4-yl]imidazo[1,2-a]pyrazin-8-yl]amino]benzamide]: under setting [2], the 90% effect concentration (IC90) is 0.517 µM.

On to `CCc1cc(Nc2nccn3c(-c4c[nH]nc4C(F)(F)F)cnc23)ccc1C(=O)NCC1CC1N` (centres unmarked) [Example 776, N-((2-aminocyclopropyl)methyl)-2-ethyl-4-((3-(3-(trifluoromethyl)-1H-pyrazol-4-yl)imidazo [1,2-a]pyrazin-8-yl)amino) benzamide formate], for which the IC90 under setting [2] came to 1.01 µM.

In the case of `CCc1cc(Nc2nccn3c(-c4cn(CC(F)F)nc4C(F)(F)F)cnc23)ccc1C(=O)NCC(=O)N1CCC(N)CC1` [Example 666, N-[2-(4-amino-1-piperidyl)-2-oxo-ethyl]-4-[[3-[1-(2,2-difluoroethyl)-3-(trifluoromethyl)pyrazol-4-yl]imidazo[1,2-a]pyrazin-8-yl]amino]-2-ethyl-benzamide formate], the IC90 under setting [1] is 0.291 µM.

As to `NCCC(=O)NCCCNC(=O)c1ccc(Nc2nccn3c(-c4c[nH]nc4C(F)(F)F)cnc23)cc1Cl` [Example 338, N-[3-(3-aminopropanoylamino)propyl]-2-chloro-4-[[3-[3-(trifluoromethyl)-1H-pyrazol-4-yl]imidazo[1,2-a]pyrazin-8-yl]amino]benzamide hydrochloride], the IC90 under setting [2] was 0.691 µM.

For `N#CCn1cc(-c2cnc3c(Nc4ccc(C(=O)N5CCN(C(=O)C6CC(N)C6)CC5)c(Cl)c4)nccn23)c(C(F)(F)F)n1` (centres unmarked) [Example 189, 2-[4-[8-[4-[4-(3-aminocyclobutanecarbonyl)piperazine-1-carbonyl]-3-chloroanilino]imidazo[1,2-a]pyrazin-3-yl]-3-(trifluoromethyl)pyrazol-1-yl]acetonitrile formate], the IC90 under setting [1] amounted to 0.204 µM.

`CCc1cc(Nc2nccn3c(-c4c[nH]nc4C(F)(F)F)cnc23)ccc1C(=O)NCCOC[C@H](C)N` [Example 203, N-[2-[(2S)-2-aminopropoxy]ethyl]-2-ethyl-4-[[3-[3-(trifluoromethyl)-1H-pyrazol-4-yl]imidazo[1,2-a]pyrazin-8-yl]amino]benzamide]: the IC90 under setting [2] turned out to be 0.102 µM.

For the molecule `Cc1cc(Nc2nccn3c(-c4c[nH]nc4C(F)(F)F)cnc23)ccc1C(=O)N1CCN(C(=O)CCN)CC1` [Example 418, 3-amino-1-[4-[2-methyl-4-[[3-[3-(trifluoromethyl)-1H-pyrazol-4-yl]imidazo[1,2-a]pyrazin-8-yl]amino]benzoyl]piperazin-1-yl]propan-1-one formate], the IC90 under setting [1] was found to be 0.583 µM.

`CCc1cc(Nc2nccn3c(-c4cn(CC(F)F)nc4C(F)(F)F)cnc23)ccc1C(=O)NCCCNC(=O)N1CC[C@@H](N)C1` [Example 632, (R)-3-amino-N-(3-(4-((3-(1-(2,2-difluoroethyl)-3-(trifluoromethyl)-1H-pyrazol-4-yl)imidazo[1,2-a]pyrazin-8-yl)amino)-2-ethylbenzamido)propyl) pyrrolidine-1-carboxamide formate]: under setting [2], the IC90 is 0.209 µM.

Consider `CCc1cc(Nc2nccn3c(-c4cn(CC#N)nc4C(F)(F)F)cnc23)ccc1C(=O)NCCNC(=O)[C@H](C)N` [Example 493, (S)-N-(2-(2-aminopropanamido)ethyl)-4-((3-(1-(cyanomethyl)-3-(trifluoromethyl)-1H-pyrazol-4-yl)imidazo[1,2-a]pyrazin-8-yl)amino)-2-ethylbenzamide formate], for which the 90% effect concentration (IC90) under setting [2] came to 0.129 µM.

In the case of `CCc1cc(Nc2nccn3c(-c4cn(C(C)C#N)nc4C(F)(F)F)cnc23)ccc1C(=O)NCC1CC1N` (centres unmarked) [Example 700, N-((2-aminocyclopropyl)methyl)-4-((3-(1-(1-cyanoethyl)-3-(trifluoromethyl)-1H-pyrazol-4-yl)imidazo[1,2-a]pyrazin-8-yl)amino)-2-ethylbenzamide formate], the IC90 under setting [1] came to 0.382 µM.

The values above are taken from patent US20230203043A1, “NOVEL IMIDAZOPYRAZINE DERIVATIVES” (Hoffmann-La Roche Inc., priority 2020, published 2023).
